Values of other authors as cited in US20220018045A1, “ELECTROSPUN COAXIAL POLYMER FIBERS FOR CONTROLLED INSECT REPELLENT RELEASE” (The Government of the United States of America, as …, priority 2020, published 2022).

Details: ambient conditions

**Q.** Which vapor pressure does the source give for CCC(C)OC(=O)N1CCCCC1CCO (stereo not shown) [picaridin, 1-(1-methylpropoxycarbonyl)-2-(2-hydroxyethyl)piperidine] here?
**A.** ~3.3×10^−2 Pa
